# Literature values in US6656923B1, “Uncomplexed cyclodextrin compositions for odor and wrinkle control” (The Procter & Gamble Company, priority 1997, dated 2003).
smiles,measurement,value
"ClC=CC[N+]12CN3CN(CN(C3)C1)C2.[Cl-] [Dowicil 200, 1-(3-Chlorallyl)-3,5,7-triaza-1-azoniaadamantane chloride]",solubility in water,freely soluble in water
